Data from patent US11771637B2, “Skin care composition and method of using the same” (The Procter & Gamble Company, priority 2021, dated 2023).
“And” between values parts separate entries of the source, which are not always exact repeats. Identical values can stand only once. No end group written: not given here. *: point of attachment. Palmitoyl = CCCCCCCCCCCCCCCC(=O)*

Tested on: Antioxidant Response Element (ARE)
Test: ARE Assay (ARE-32 luciferase reporter cell line)
Assay type: cell-based
Description: This method provides a way to quantitate ARE activation using the ARE-32 reporter cell line available from CXR Biosciences. The ARE-32 cell line is a stable MCF7 cell line containing pGL8x-ARE (8 copies of the rat GST ARE linked to the luciferase gene) and pCDNA3.1, which contains the neomycin selectable marker. A detailed description of the ARE-32 cell line and its development and use can be found in “Generation of a Stable Antioxidant Response Element-Driven Reporter Gene Cell Line and Its Use to Show Redox-Dependent Activation of Nrf2 by Cancer Chemotherapeutic Agents.” Cancer Res 2006; 66(22): 10983-94. A general schematic for how an ARE reporter assay operates to identify agents that promote transcription off the ARE is described in U.S. Publication No. 2011/0262570.
The ARE Assay uses expanded and cryopreserved passaged stocks. The cells are expanded over 4-5 days in culture flasks and passaged every 3-4 days, when cells are approximately 80% confluent. When cells are >70% confluent or ready to seed into 96 well plates, the cells are trypsinized, seeded and grown in 96-well plates. After growing for 1 day in 96-well plates, the media is replaced with fresh treatment media (phenol red free, no FBS) and cells are treated with compounds and incubated overnight (24 hours). Post treatment, cells are rinsed with 1×PBS, lysed and receive the luciferase kit reagent and luminescence is measured.
Frozen AREC32 cells (frozen in 90% FBS and 10% DMSO) are quickly thawed and placed in a 50 ml conical tube with 25 ml plating media. Centrifuge at 1500-2000 RPM for 5 minutes. Remove media without disturbing cell pellet. Re-suspend cells in 12 ml media and add to T-75 tissue culture flask. Cells should be at >80% confluency in 4-5 days and can be split 1:3 into T-150 flasks to grow cells for seeding plates if more cells are needed.
Cells are maintained and plated in 96-well plates with plating media. Subculture (passage cells) every 3-4 days or when ˜75-80% confluent. To passage cells, aspirate media from flask and add 6 ml 0.25% trypsin. Tilt flask in all directions to distribute the trypsin over the bottom of the flask and place in incubator. After 2-3 minutes observe cells under microscope to see if detached. If cells have not detached completely place in incubator for an additional 2-3 minutes. Once detached, add 6 ml maintenance media to neutralize trypsin and pipet into centrifuge tube. Centrifuge at 1200 RPM for 5 minutes. Remove media without disturbing cell pellet. Re-suspend pellet in 12 ml maintenance media and add to flask. If splitting or detaching cells from a T-150 flask double all volumes and follow same procedures.
Aspirate media from flask and add appropriate volume of 0.25% trypsin depending on size of flask (6 ml for T-75 and 12 ml for T-150 flask). Swirl flask to distribute trypsin on bottom of flask and return to incubator for 2-3 minutes. Observe cells under microscope. If cells have not detached completely place in incubator for an additional 2-3 minutes. Once cells are detached add DMEM equal to the volume of trypsin, mix gently and place in centrifuge tube. Centrifuge at […] for 5 minutes. Aspirate media without disturbing cell pellet. Re-suspend pellet in 10 ml DMEM. Dilute the cells 1:5 using 50 μl cells+200 μl DMEM. Use 20 μl of this dilution and 20 μl 0.4% trypan blue. Mix and add 10 μl/chamber to disposable hemocytometer and insert into Countess II Instrument. Non-viable cells will be blue, viable cells will be unstained. Cell seeding density may vary from ˜10,000 cells/well or more depending on cell passage growth. Cell density should be approx. 70-80% on day of treatment/dosing. […] Media must be free of phenol red.
Tert-Butylhydroquinone (tBHQ) (Aldrich, Cat #11,294-1). Prepare 100 mM stock (1M=166.21 mg/ml; 100 mM=16.62 mg/ml). Dilute to 750 μM (1:133) using 30 μl of 100 mM tBHQ and […] treatment media. 2 μl of positive control should yield a final concentration of 7.5 μM in the test well. […]

## NC(=O)c1cccnc1 [N, niacinamide, reference compound]
N 1 ppm alone
  Average Net Luminescence N: 8
N 10 ppm alone
  Average Net Luminescence N: 12
N 50 ppm alone
  Average Net Luminescence N: 45
N 500 ppm alone
  Average Net Luminescence N: 53
Table 3, N 500 ppm alone
  Average Net Luminescence N: 45

## acetyl tetrapeptide-11 (Ac-PPYL)
Ac-PPYL 0.05 ppm alone
  Average Net Luminescence Ac-PPYL: 12 and 19.4 and 20
Ac-PPYL 0.1 ppm alone
  Average Net Luminescence Ac-PPYL: 22 and 15.7
Ac-PPYL 0.5 ppm alone
  Average Net Luminescence Ac-PPYL: 14.7 and 26
Ac-PPYL 1 ppm alone
  Average Net Luminescence Ac-PPYL: 56 and 51
Ac-PPYL 2 ppm alone
  Average Net Luminescence Ac-PPYL: 64 and 61
Table 3, Ac-ppyl 2 ppm alone
  Average Net Luminescence Ac-PPYL: 57

## palmitoyl pentapeptide-4 (Palmitoyl-KTTKS) [Pal-KTTKS]
Pal-KTTKS 1 ppm alone
  Average Net Luminescence Pal-kttks: 24.3
Table 3, Pal-kttks 1 ppm alone
  Average Net Luminescence Pal-kttks: 21
